Assay results from patent US20110190253A1, “METHOD FOR TREATING TUBERCULOSIS” (priority 2008, published 2011).

System: extensively drug-resistant (XDR) clinical strains of M. tuberculosis
Assay: microbe, parasite or virus in culture
Format: cell-based
Details: for variability of MIC values among strains: thirteen XDR clinical isolates, clavulanate 2.5 μg ml^−1, data not shown

Row | Structure (SMILES) | variability of MIC values among strains | MIC (Mycobacterium tuberculosis, read-out: MIC value)
1 | CC1(C)S[C@@H]2[C@H](NC(=O)[C@H](N)c3ccccc3)C(=O)N2[C@H]1C(=O)O [ampicillin] | substantial variability | –
2 | C[C@@H](O)[C@H]1C(=O)N2C(C(=O)O)=C(S[C@@H]3CN[C@H](C(=O)N(C)C)C3)[C@H](C)[C@H]12 [meropenem] | – | ≤ 1 µg/mL
3 | CC(=O)OCC1=C(C(=O)O)N2C(=O)[C@@H](NC(=O)Cc3cccs3)[C@H]2SC1 [cephalothin] | substantial variability | –
